# Reference: PubChem BioAssay AID330 (DTP/NCI, 2004)
# “And” between values parts separate entries of the source, which are not always exact repeats. Equal entries are not always repeated. Inconclusive results and toxic doses are left out.
# Tested on: P388 leukemia ip, CD2F1 mice, survival T/C
# Test: NCI In Vivo Anticancer Drug Screen. Data for tumor model P388 Leukemia (intraperitoneal) in CD2F1 (CDF1) mice
# Settings: endpoint: median survival time, higher = longer survival
# Procedure, shortened: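 Mice carrying the transplanted tumor received test compound or vehicle. Survival was recorded in each group, and the value is the treated-group measurement divided by that of the vehicle-treated control group.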
# [1] = dose: 50.0 mg/kg/injection, schedule: Q01DX009 (ip), vehicle: saline
# [2] = dose: 100.0 mg/kg/injection, schedule: Q01DX009 (ip), vehicle: saline
# [3] = dose: 60.0 mg/kg/injection, schedule: Q01DX005 (ip), vehicle: saline with Tween-80
# [4] = dose: 50.0 mg/kg/injection, schedule: Q01DX009 (ip), vehicle: saline with Tween-80
# [5] = dose: 100.0 mg/kg/injection, schedule: Q01DX009 (ip), vehicle: saline with Tween-80
# [6] = dose: 120.0 mg/kg/injection, schedule: Q01DX005 (ip), vehicle: saline with Tween-80
# [7] = dose: 240.0 mg/kg/injection, schedule: Q01DX005 (ip), vehicle: saline with Tween-80
smiles,measurement,setting,value
CNC(=O)N(C)C1OC(CO)C(O)C1O (stereo unspecified),T/C,"dose: 100.0 mg/kg/injection, schedule: Q04DX003 (ip), vehicle: water",113 % of control
same,T/C,"dose: 200.0 mg/kg/injection, schedule: Q04DX003 (ip), vehicle: water",119 % of control
same,T/C,"dose: 400.0 mg/kg/injection, schedule: Q04DX003 (ip), vehicle: water",119 % of control
C=C(Cl)C[N+]12CN3CN(CN(C3)C1)C2,T/C,"dose: 12.5 mg/kg/injection, schedule: Q01DX009 (ip), vehicle: saline",100 % of control
same,T/C,"dose: 25.0 mg/kg/injection, schedule: Q01DX009 (ip), vehicle: saline",96 % of control
same,T/C,[1],105 % of control
same,T/C,[2],107 % of control
O=C(Cn1nnc(N2CCCCC2)n1)N/N=C/c1ccccc1O,T/C,"dose: 30.0 mg/kg/injection, schedule: Q01DX005 (ip), vehicle: Klucel (hydroxypropylcellulose) (HPC)",88 % of control
same,T/C,"dose: 120.0 mg/kg/injection, schedule: Q01DX005 (ip), vehicle: Klucel (hydroxypropylcellulose) (HPC)",95 % of control
same,T/C,"dose: 240.0 mg/kg/injection, schedule: Q01DX005 (ip), vehicle: Klucel (hydroxypropylcellulose) (HPC)",95 % of control
[Cl][Sn]([c]1ccccc1)([c]1ccccc1)[c]1ccccc1,T/C,"dose: 2.5 mg/kg/injection, schedule: Q01DX009 (ip), vehicle: saline",100 % of control
same,T/C,"dose: 5.0 mg/kg/injection, schedule: Q01DX009 (ip), vehicle: saline",115 % of control
CCn1c(Cl)c(/C=N/NC(N)=S)c2cc(/C=N/NC(N)=S)ccc21,T/C,"dose: 100.0 mg/kg/injection, schedule: Q01DX001 (ip), vehicle: Klucel (hydroxypropylcellulose) (HPC)",98 % of control
same,T/C,"dose: 200.0 mg/kg/injection, schedule: Q01DX001 (ip), vehicle: Klucel (hydroxypropylcellulose) (HPC)",97 % of control
same,T/C,"dose: 400.0 mg/kg/injection, schedule: Q01DX001 (ip), vehicle: Klucel (hydroxypropylcellulose) (HPC)",89 % of control
c1ccc2c(c1)[As]=c1ccccc1=[As]2 (stereo unspecified),T/C,"dose: 0.79 mg/kg/injection, schedule: Q01DX009 (ip), vehicle: saline",107 % of control
same,T/C,"dose: 1.56 mg/kg/injection, schedule: Q01DX009 (ip), vehicle: saline",105 % of control and 118 % of control
same,T/C,"dose: 3.12 mg/kg/injection, schedule: Q01DX009 (ip), vehicle: saline",122 % of control
same,T/C,"dose: 6.25 mg/kg/injection, schedule: Q01DX009 (ip), vehicle: saline",173 % of control
Cc1ccc2c(c1)nc(C)c(=O)n2CC1CCCN2CCCC[C@H]12 (stereo partly specified),T/C,"dose: 15.0 mg/kg/injection, schedule: Q01DX005 (ip), vehicle: saline with Tween-80",97 % of control
same,T/C,"dose: 30.0 mg/kg/injection, schedule: Q01DX005 (ip), vehicle: saline with Tween-80",97 % of control
same,T/C,[3],97 % of control
CCOC(/C=C/c1ccccc1)OCC,T/C,"dose: 100.0 mg/kg/injection, schedule: Q04DX003 (ip), vehicle: saline",104 % of control
same,T/C,"dose: 200.0 mg/kg/injection, schedule: Q04DX003 (ip), vehicle: saline",104 % of control
COc1ccc2nc3cc(Cl)ccc3c(NCCOCCO)c2c1,T/C,[4],101 % of control
same,T/C,[5],109 % of control
CC(C)n1cnc2c(=S)nc[nH]c21,T/C,"dose: 25.0 mg/kg/injection, schedule: Q01DX009 (ip), vehicle: saline with Tween-80",90 % of control
same,T/C,[4],100 % of control
same,T/C,[5],109 % of control
CCCC/C([O-])=C1/C(=O)N(c2ccccc2)N=C1C.CCCC/C([O-])=C1/C(=O)N(c2ccccc2)N=C1C.[Cu+2],T/C,[3],90 % of control
same,T/C,[6],97 % of control
same,T/C,[7],96 % of control
CN(C)/C=N/NC(=O)c1ccccc1N,T/C,[3],101 % of control
same,T/C,[6],101 % of control
same,T/C,[7],100 % of control
CC(=O)Nc1ccc(S(=O)(=O)Oc2noc3ccc(Br)cc23)cc1,T/C,"dose: 50.0 mg/kg/injection, schedule: Q01DX005 (ip), vehicle: Klucel (hydroxypropylcellulose) (HPC)",98 % of control
same,T/C,"dose: 100.0 mg/kg/injection, schedule: Q01DX005 (ip), vehicle: Klucel (hydroxypropylcellulose) (HPC)",97 % of control
same,T/C,"dose: 200.0 mg/kg/injection, schedule: Q01DX005 (ip), vehicle: Klucel (hydroxypropylcellulose) (HPC)",90 % of control
O=C1OC(CCCl)CN1Cc1ccccc1 (stereo unspecified),T/C,[1],103 % of control
same,T/C,[2],103 % of control
same,T/C,"dose: 200.0 mg/kg/injection, schedule: Q01DX009 (ip), vehicle: saline",98 % of control
O=C(Nc1cccnc1)c1ccc([N+](=O)[O-])s1,T/C,"dose: 25.0 mg/kg/injection, schedule: Q01DX005 (ip), vehicle: saline",90 % of control
same,T/C,"dose: 50.0 mg/kg/injection, schedule: Q01DX005 (ip), vehicle: saline",87 % of control
same,T/C,"dose: 100.0 mg/kg/injection, schedule: Q01DX005 (ip), vehicle: saline",92 % of control
same,T/C,"dose: 200.0 mg/kg/injection, schedule: Q01DX005 (ip), vehicle: saline",103 % of control
same,T/C,"dose: 400.0 mg/kg/injection, schedule: Q01DX005 (ip), vehicle: saline",121 % of control
